From patent US20210379077A1, “TOPOISOMERASE II CATALYTIC INHIBITOR COMPOUND THERAPEUTICS FOR CANCER TREATMENT, METHODS AND USES” (The University of British Columbia, priority 2018, published 2021)
Entries after “also recorded” stand apart in the source; their conditions may differ.

Tests used:
human TOP2a = biological target: T1, human TOP2a (Homo sapiens, UniProt P11388); experiment: K-DNA decatenation assay; format: biochemical; settings: 0-50 μM, 37° C., 1 hour
T1 construct: purchased TopoGENE (TopoGEN) TG1001 (assay kit)
Experimental: DNA samples were separated by electrophoresis on 0.8% agarose gels and visualized by ethium bromide staining. The positions of K-DNA and decatenated (D) DNA products are marked by arrows. Experiments were repeated five times and the densitometry of the D bands were used to establish an inhibition curve to calculate IC50. (b) Supercoiled pHOT™ plasmid was incubated with human TOP2a in the presence of 50 μM Etopside, 50 uM ICRF193 or 0-50 μM of compound #60 (Top60) compound at 37° C. for 1 hour. DNA products were separated by electrophoresis on 1% agarose gels and visualized by ethium bromide staining. The positions of supercoiled (SC), nicked (N), and relaxed (R) DNA bands are marked by arrows. Experiments were repeated five times and the densitometiy of the SC bands were used to establish an inhibition curve to calculate IC50. (c) Supercoiled pHOT™ plasmid was incubated with Topoisomerase I prior to addition of either mAMSA or compound #60 (Top60) at concentrations of 0, 5, 10, 25 and 50 μM at 37° C. for 30 minutes. Reactions were stopped by 1% SDS at 37° C. for 15 minutes. DNA products were separated by electrophoresis on a 1% agarose gels and visualized by ethium bromide staining. […]

Topo IIα = Topo IIα (Homo sapiens, UniProt P11388); experiment: Thermal shift assay in cells; format: binding; set-up: endogenous in cells; host or cells: K562; settings: K562 cells, 20 μM
Experimental: Whole cell lyses were collected and used to measure protein levels of TOP2α, TOP2β with β-Actin as a loading control; (b) K562 cells were treated with 0, 1, and 10 μM of Top60 for 24 hours. Protein lyses were collected from soluble nuclear extract, chromatin fraction or whole cell lysate. TOP2α and TOP2β protein levels were determined by immunoblotting with Lamin A/C, Histone H3 and β-Actin as loading controls; and (c) Etoposide-resistant K562 cell line was established by treating cells with 0.5 μM of Etoposide for 6 months. TOP2α, TOP2β, and β-actin protein levels were determined by immunoblotting. Etoposide-resistant K562 cells were treated with 0, 1, 10, 15 and 20 μM of Top60, Etoposide or ICRF187 for 48 hours. Cell proliferation rates were determined by MTS assays.
Thermal shift and chromatin fraction assays—In the thermal shift assays, cells were treated with vehicle or compound #60 (Top60) for 1 hour, split into equal aliquots to be heated at 37 to 46 degrees in a PCR machine. Protein lyses were collected to perform immunoblotting assays with Topo II antibodies. In the chromatin fraction assays, cells were treated with vehicle or compound #60 (Top60). Both soluble and chromatin associated proteins were fractioned following the protocol described by Wysocka J et al.^18. Protein lyses were collected to perform immunoblotting assays with Topo II antibodies. […]

K562 cells = experiment: MTS cell proliferation assay; format: cell-based; settings: 0-20 μM 48 hours, 20 μM 0-72 hours, listed as Top60
Experimental: (§1) Cytotoxicity was evaluated by measuring LDH levels from cell culture media; (b) K562 cells were treated with either vehicle or 10-20 μM of Top60, Etoposide and ICRF187 for 4 hours. Whole cell lyses were collected to measure γH2AX levels with vinculin as the loading control; (c) K562 cells were treated with 0, 1, 5, 10, 15 and 20 μM of Top60, 20 μM Etoposide or 20 uM ICRF187 for 48 hours. Cell proliferation rates were determined by MTS assays; and (d) K562 cells were treated with 20 μM of Top60, Etoposide or ICRF187 for 0, 24, 48 and 72 hours. Cell proliferation rates were measured by MTS assays. All results were collected from three independent experiments.
(§2) BrDU incorporation and cell proliferation assays—Cell proliferation rates were measured by using the CellTitre™ 96 AqueousOne™ kit (Promega™) and bromodeoxyuridine (BrdU) assay kit (Millipore™) according to the manufacturer's protocol, with minor modifications as we have previously described by Li H. et al.^19

Cancer Cell = experiment: Cancer cell growth inhibition; format: cell-based; set-up: key: Y is an indication that activity was found
Experimental: as §2

Hela cells [1] = experiment: BrdU incorporation assay; format: cell-based; settings: 20 μM, 48 hours, listed as Top60
Experimental: BrdU incorporation rates were determined by Millipore™ BrdU incorporation kit (CAT #2750). (b-c) Hela cells were treated with vehicle or 20 μM of Top60 for 48 hours. Cells were then stained with APC-BrdU and 7-AAD for 4 hours, and subjected to FACS assays to determine cell populations at Sub G0/G1, G0/G1, S, and G2/M phases. Results were collected from three independent experiments, (d-e) Hela cells were treated with either vehicle or 20 μM T60 for 48 hours. Cells were fixed and co-stained with DAPI and phalloidin, and examined by confocal microscopy. Fifty cells were chosen from five high power fields to analyze nuclei sizes by the Image J software. Representative bright field microscopic images were also shown. Scale bar=50 μm.
as §2

Hela cells [2] = experiment: LDH cytotoxicity assay; format: cell-based; settings: 0-20 μM, 48 hours, listed as Top60
Experimental: as §1
Cytotoxicity assay—Cytotoxicity assays were performed using the commercial kit from Pierce (CAT #8078). Briefly, culture media was collected and used to measure lactate dehydrogenase (LDH) levels by a colorimetric method following manufacture's protocol.

Topo IIα, sequence (P11388 whole entry): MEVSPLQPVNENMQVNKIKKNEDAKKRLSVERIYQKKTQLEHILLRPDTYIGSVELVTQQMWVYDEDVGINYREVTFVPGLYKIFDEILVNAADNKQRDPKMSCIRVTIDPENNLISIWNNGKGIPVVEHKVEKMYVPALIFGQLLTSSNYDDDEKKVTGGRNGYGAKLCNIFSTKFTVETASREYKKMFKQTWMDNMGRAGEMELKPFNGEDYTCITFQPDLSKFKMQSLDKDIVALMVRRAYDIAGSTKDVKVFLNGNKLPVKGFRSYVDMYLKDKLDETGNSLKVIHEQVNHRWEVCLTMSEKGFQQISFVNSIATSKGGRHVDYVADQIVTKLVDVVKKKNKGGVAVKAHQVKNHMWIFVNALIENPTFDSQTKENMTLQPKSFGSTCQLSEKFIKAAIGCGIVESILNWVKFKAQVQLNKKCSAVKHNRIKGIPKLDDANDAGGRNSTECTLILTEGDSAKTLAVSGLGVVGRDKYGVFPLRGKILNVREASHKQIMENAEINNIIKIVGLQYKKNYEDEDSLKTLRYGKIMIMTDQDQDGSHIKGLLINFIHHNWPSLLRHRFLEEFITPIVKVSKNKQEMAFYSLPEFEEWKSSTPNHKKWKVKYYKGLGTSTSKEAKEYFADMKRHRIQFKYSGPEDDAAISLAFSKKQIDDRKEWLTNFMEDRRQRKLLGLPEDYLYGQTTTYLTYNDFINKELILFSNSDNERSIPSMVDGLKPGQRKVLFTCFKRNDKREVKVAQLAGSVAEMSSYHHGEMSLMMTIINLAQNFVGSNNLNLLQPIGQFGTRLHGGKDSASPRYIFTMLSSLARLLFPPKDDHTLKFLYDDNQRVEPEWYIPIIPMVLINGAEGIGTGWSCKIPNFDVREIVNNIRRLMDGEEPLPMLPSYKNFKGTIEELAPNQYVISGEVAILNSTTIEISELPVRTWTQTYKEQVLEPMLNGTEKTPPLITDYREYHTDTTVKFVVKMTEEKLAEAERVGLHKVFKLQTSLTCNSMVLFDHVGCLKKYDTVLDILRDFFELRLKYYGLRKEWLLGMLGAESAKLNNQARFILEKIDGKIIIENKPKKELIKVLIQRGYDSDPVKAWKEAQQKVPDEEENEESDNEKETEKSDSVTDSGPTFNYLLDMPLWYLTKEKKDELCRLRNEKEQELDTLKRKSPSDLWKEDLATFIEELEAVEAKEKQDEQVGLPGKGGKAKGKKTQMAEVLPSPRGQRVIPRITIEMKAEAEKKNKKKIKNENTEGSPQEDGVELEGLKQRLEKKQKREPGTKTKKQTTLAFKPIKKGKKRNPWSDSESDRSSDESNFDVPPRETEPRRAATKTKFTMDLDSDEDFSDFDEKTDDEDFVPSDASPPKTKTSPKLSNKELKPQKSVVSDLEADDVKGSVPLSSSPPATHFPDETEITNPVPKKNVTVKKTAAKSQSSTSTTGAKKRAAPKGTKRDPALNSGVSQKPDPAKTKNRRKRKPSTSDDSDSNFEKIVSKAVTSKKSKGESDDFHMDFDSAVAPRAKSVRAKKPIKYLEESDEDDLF
T1 sequence (P11388 whole entry): as above

IC50 in the decatenation assay (human TOP2a): nanomolar
temperature up to which Topo IIα was stabilized (Topo IIα): up to 43 °C
SMILES: O=C(Nc1ccc(Nc2ccccc2)cc1)c1ccc[nH]c1=S [Compound 60]
cell proliferation (MTS) (K562 cells): strong inhibitory effects; also recorded: inhibits cell proliferation
Cancer Cell Growth Inhib. (Cancer Cell): Y
cellular replication (BrdU incorporation) (Hela cells [1]): Decreased cellular replication; also recorded: inhibits DNA synthesis at S phase
cytotoxicity (LDH levels in culture media) (Hela cells [2]): Low cytotoxic affect; also recorded: low cytotoxicity
